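Briefly, cells in 96-well plates were exposed to five compound concentrations for 48 h, and endpoints were estimated by linear interpolation. GI50 marks 50% less growth.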 The source made the active and inactive calls. No stated cut-off is given here; in the data, active = GI50 up to about 1.1 µM and inactive = higher.
Legend:
Experiment in all cases: NCI tumour cell line growth inhibition, 48 h
[1] = system: SNB-75
[2] = system: OVCAR-8
[3] = system: UACC-257
[4] = system: TK-10
[5] = system: SK-MEL-5
[6] = system: 786-0
[7] = system: SK-OV-3
[8] = system: RXF 393
[9] = system: SF-539
[10] = system: BT-549
[11] = system: SK-MEL-28
[12] = system: NCI-H226
[13] = system: PC-3
[14] = system: SK-MEL-2
[15] = system: HL-60
[16] = system: SW-620
[17] = system: ACHN
[18] = system: COLO 205
[19] = system: OVCAR-5
[20] = system: MDA-N

Compound: CSC1=N/C(=C\c2c[nH]c3ccccc23)C(=O)N1
- GI50 [1]: 27.7 µM (inactive)
- GI50 [2]: > 100 µM (inactive)
- GI50 [3]: > 100 µM (inactive)
- GI50 [4]: 66.7 µM (inactive)
- GI50 [5]: 39.4 µM (inactive)
- GI50 [6]: 84.3 µM (inactive)
- GI50 [7]: > 100 µM (inactive)
- GI50 [8]: 92.7 µM (inactive)
- GI50 [9]: > 100 µM (inactive)
- GI50 [10]: > 100 µM (inactive)
- GI50 [11]: > 100 µM (inactive)
- GI50 [12]: > 100 µM (inactive)
- GI50 [13]: 44.7 µM (inactive)
- GI50 [14]: 35.8 µM (inactive)
- GI50 [15]: 18.3 µM (inactive)
- GI50 [16]: > 100 µM (inactive)
- GI50 [17]: 44.4 µM (inactive)
- GI50 [18]: 63 µM (inactive)
- GI50 [19]: > 100 µM (inactive)

Compound: CC(C)(C)c1cc(C(=O)Nc2cc(Br)c(Br)cc2S(N)(=O)=O)cc(C(C)(C)C)c1O
- GI50 [1]: 9.31 µM (inactive)
- GI50 [2]: 13.3 µM (inactive)
- GI50 [3]: 17.9 µM (inactive)
- GI50 [4]: 12.9 µM (inactive)
- GI50 [5]: 12.4 µM (inactive)
- GI50 [6]: 11 µM (inactive)
- GI50 [7]: 16.4 µM (inactive)
- GI50 [8]: 11.1 µM (inactive)
- GI50 [9]: 15.8 µM (inactive)
- GI50 [10]: 12.2 µM (inactive)
- GI50 [11]: 13.4 µM (inactive)
- GI50 [12]: 13.1 µM (inactive)
- GI50 [13]: 10.7 µM (inactive)
- GI50 [14]: 10 µM (inactive)
- GI50 [16]: 9.42 µM (inactive)
- GI50 [17]: 11.3 µM (inactive)
- GI50 [18]: 5.08 µM (inactive)
- GI50 [19]: 12.4 µM (inactive)

Compound: CC1=C(C)SC(=C2Sc3[n-]c(=O)[nH]c(=O)c3S2)S1.CCCC[N+](CCCC)(CCCC)CCCC
- GI50 [1]: > 100 µM (inactive)
- GI50 [2]: 49.4 µM (inactive)
- GI50 [3]: > 100 µM (inactive)
- GI50 [4]: > 100 µM (inactive)
- GI50 [5]: 28.5 µM (inactive)
- GI50 [6]: > 100 µM (inactive)
- GI50 [7]: > 100 µM (inactive)
- GI50 [8]: > 100 µM (inactive)
- GI50 [9]: 44.5 µM (inactive)
- GI50 [10]: > 100 µM (inactive)
- GI50 [11]: 39.2 µM (inactive)
- GI50 [12]: > 100 µM (inactive)
- GI50 [13]: > 100 µM (inactive)
- GI50 [15]: < 0.01 µM (active)
- GI50 [16]: > 100 µM (inactive)
- GI50 [17]: > 100 µM (inactive)
- GI50 [18]: > 100 µM (inactive)
- GI50 [19]: > 100 µM (inactive)

Compound: COc1ccc(CCc2ccc(O)c(C(=O)O)c2)cc1OC
- GI50 [1]: 79.6 µM (inactive)
- GI50 [2]: > 100 µM (inactive)
- GI50 [3]: > 100 µM (inactive)
- GI50 [4]: > 100 µM (inactive)
- GI50 [5]: 98.9 µM (inactive)
- GI50 [6]: > 100 µM (inactive)
- GI50 [7]: > 100 µM (inactive)
- GI50 [8]: 63.5 µM (inactive)
- GI50 [9]: 37.2 µM (inactive)
- GI50 [11]: > 100 µM (inactive)
- GI50 [12]: > 100 µM (inactive)
- GI50 [13]: > 100 µM (inactive)
- GI50 [14]: > 100 µM (inactive)
- GI50 [20]: > 100 µM (inactive)
- GI50 [15]: > 100 µM (inactive)
- GI50 [16]: > 10 µM (inactive)
- GI50 [17]: > 100 µM (inactive)
- GI50 [18]: > 100 µM (inactive)
- GI50 [19]: > 100 µM (inactive)

Compound: COC(=O)C(C)(C)[C@@H]1OC(=O)N(S(=O)(=O)c2c(C)cc(C)cc2C)[C@H]1C(C)C
- GI50 [1]: 41 µM (inactive)
- GI50 [2]: > 100 µM (inactive)
- GI50 [3]: 60.3 µM (inactive)
- GI50 [4]: > 100 µM (inactive)
- GI50 [5]: 41.8 µM (inactive)
- GI50 [6]: > 100 µM (inactive)
- GI50 [7]: > 100 µM (inactive)
- GI50 [8]: > 100 µM (inactive)
- GI50 [9]: > 100 µM (inactive)
- GI50 [11]: > 100 µM (inactive)
- GI50 [12]: 27.4 µM (inactive)
- GI50 [13]: 32.7 µM (inactive)
- GI50 [14]: 95.7 µM (inactive)
- GI50 [20]: > 100 µM (inactive)
- GI50 [15]: 23.6 µM (inactive)
- GI50 [16]: 82.2 µM (inactive)
- GI50 [17]: > 100 µM (inactive)
- GI50 [18]: 27 µM (inactive)
- GI50 [19]: > 100 µM (inactive)

Compound: CC(C)(C)[C@H]1NC(=O)CN1C(=O)OCc1ccccc1
- GI50 [1]: > 100 µM (inactive)
- GI50 [2]: > 100 µM (inactive)
- GI50 [3]: 98.9 µM (inactive)
- GI50 [4]: > 100 µM (inactive)
- GI50 [5]: 85.9 µM (inactive)
- GI50 [6]: > 100 µM (inactive)
- GI50 [7]: > 100 µM (inactive)
- GI50 [8]: > 100 µM (inactive)
- GI50 [9]: > 100 µM (inactive)
- GI50 [10]: > 100 µM (inactive)
- GI50 [11]: > 100 µM (inactive)
- GI50 [12]: > 100 µM (inactive)
- GI50 [13]: 36.7 µM (inactive)
- GI50 [14]: > 100 µM (inactive)
- GI50 [15]: > 100 µM (inactive)
- GI50 [16]: > 100 µM (inactive)
- GI50 [17]: 82.2 µM (inactive)
- GI50 [18]: > 100 µM (inactive)
- GI50 [19]: > 100 µM (inactive)

Source: ChEMBL document CHEMBL1201862, “PubChem BioAssay data set” (2004)
